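A five-concentration, 48-hour dose response in 96-well plates underlies each endpoint, interpolated linearly between surrounding concentrations. The concentration for 50% growth inhibition is given as GI50. At the TGI there is no net growth.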
How the values were obtained:
Test in all cases: DTP human tumour cell line panel, 48 h
[1] = test system: KM12 colon
[2] = test system: SW-620 colon
[3] = test system: SN12C renal
[4] = test system: IGROV1 ovarian
[5] = test system: OVCAR-5 ovarian
[6] = test system: A549 NSCLC
[7] = test system: K-562 leukemia
[8] = test system: CAKI-1 renal
[9] = test system: HL-60(TB) leukemia
[10] = test system: MDA-MB-231 breast
[11] = test system: HS 578T breast
[12] = test system: EKVX NSCLC
[13] = test system: A498 renal
[14] = test system: M14 melanoma
[15] = test system: RXF 393 renal
[16] = test system: SNB-75 CNS
[17] = test system: SK-OV-3 ovarian
[18] = test system: NCI/ADR-RES ovarian
[19] = test system: HOP-62 NSCLC
[20] = test system: MDA-MB-435
[21] = test system: NCI-H460 lung
[22] = test system: MOLT-4 leukemia
[23] = test system: CCRF-CEM leukemia
[24] = test system: RPMI-8226 leukemia
[25] = test system: NCI-H226 lung
[26] = test system: SF-539 CNS
[27] = test system: ACHN renal
[28] = test system: TK-10 renal
[29] = test system: 786-0 renal
[30] = test system: HOP-92 NSCLC
[31] = test system: COLO 205 colon
[32] = test system: PC-3 prostate
[33] = test system: SF-295 CNS
[34] = test system: OVCAR-4 ovarian
[35] = test system: SR leukemia
[36] = test system: LOX IMVI melanoma
[37] = test system: BT-549 breast
[38] = test system: T-47D breast
[39] = test system: OVCAR-8 ovarian
[40] = test system: HT29 colon
[41] = test system: HCC-2998 colon
[42] = test system: UACC-257 melanoma
[43] = test system: MALME-3M melanoma
[44] = test system: SF-268 CNS
[45] = test system: SK-MEL-28 melanoma
[46] = test system: SNB-19 CNS
[47] = test system: SK-MEL-2 melanoma
[48] = test system: UO-31 renal
[49] = test system: HCT-15 colon
[50] = test system: UACC-62 melanoma
[51] = test system: HCT-116 colon
[52] = test system: U251 CNS
[53] = test system: NCI-H522 lung
[54] = test system: SK-MEL-5 melanoma
[55] = test system: MCF7 breast
[56] = test system: OVCAR-3 ovarian
[57] = test system: DU-145 prostate

SMILES: Cc1ncnc2c1ccn2[C@@H]1C[C@H](Oc2cc(C(F)F)c(F)c3c2CNCC3)[C@@H](O)[C@H]1O
- GI50 [1]: > 100 µM
- TGI [1]: > 100 µM
- GI50 [2]: > 100 µM
- TGI [2]: > 100 µM
- GI50 [3]: > 100 µM
- TGI [3]: > 100 µM
- GI50 [4]: > 100 µM
- TGI [4]: > 100 µM
- GI50 [5]: > 100 µM
- TGI [5]: > 100 µM
- GI50 [6]: > 100 µM
- TGI [6]: > 100 µM
- GI50 [7]: > 100 µM
- TGI [7]: > 100 µM
- GI50 [8]: > 100 µM
- TGI [8]: > 100 µM
- GI50 [9]: > 100 µM
- TGI [9]: > 100 µM
- GI50 [10]: > 100 µM
- TGI [10]: > 100 µM
- GI50 [11]: > 100 µM
- TGI [11]: > 100 µM
- GI50 [12]: > 100 µM
- TGI [12]: > 100 µM
- GI50 [13]: > 100 µM
- TGI [13]: > 100 µM
- GI50 [14]: > 100 µM
- TGI [14]: > 100 µM
- GI50 [15]: > 100 µM
- TGI [15]: > 100 µM
- GI50 [16]: > 100 µM
- TGI [16]: > 100 µM
- GI50 [17]: > 100 µM
- TGI [17]: > 100 µM
- GI50 [18]: > 100 µM
- TGI [18]: > 100 µM
- GI50 [19]: > 100 µM
- TGI [19]: > 100 µM
- GI50 [20]: > 100 µM
- TGI [20]: > 100 µM
- GI50 [21]: > 100 µM
- TGI [21]: > 100 µM
- GI50 [22]: > 100 µM
- TGI [22]: > 100 µM
- GI50 [23]: > 100 µM
- TGI [23]: > 100 µM
- GI50 [24]: > 100 µM
- TGI [24]: > 100 µM
- GI50 [25]: > 100 µM
- TGI [25]: > 100 µM
- GI50 [26]: > 100 µM
- TGI [26]: > 100 µM
- GI50 [27]: > 100 µM
- TGI [27]: > 100 µM
- GI50 [28]: > 100 µM
- TGI [28]: > 100 µM
- GI50 [29]: > 100 µM
- TGI [29]: > 100 µM
- GI50 [30]: 4.68 µM
- TGI [30]: > 100 µM
- GI50 [31]: > 100 µM
- TGI [31]: > 100 µM
- GI50 [32]: > 100 µM
- TGI [32]: > 100 µM
- GI50 [33]: > 100 µM
- TGI [33]: > 100 µM
- GI50 [34]: > 100 µM
- TGI [34]: > 100 µM
- GI50 [35]: > 100 µM
- TGI [35]: > 100 µM
- GI50 [36]: > 100 µM
- TGI [36]: > 100 µM
- GI50 [37]: > 100 µM
- TGI [37]: > 100 µM
- GI50 [38]: > 100 µM
- TGI [38]: > 100 µM
- GI50 [39]: > 100 µM
- TGI [39]: > 100 µM
- GI50 [40]: > 100 µM
- TGI [40]: > 100 µM
- GI50 [41]: > 100 µM
- TGI [41]: > 100 µM
- GI50 [42]: > 100 µM
- TGI [42]: > 100 µM
- GI50 [43]: > 100 µM
- TGI [43]: > 100 µM
- GI50 [44]: > 100 µM
- TGI [44]: > 100 µM
- GI50 [45]: > 100 µM
- TGI [45]: > 100 µM
- GI50 [46]: > 100 µM
- TGI [46]: > 100 µM
- GI50 [47]: > 100 µM
- TGI [47]: > 100 µM
- GI50 [48]: > 100 µM
- TGI [48]: > 100 µM
- GI50 [49]: > 100 µM
- TGI [49]: > 100 µM
- GI50 [50]: > 100 µM
- TGI [50]: > 100 µM
- GI50 [51]: > 100 µM
- TGI [51]: > 100 µM
- GI50 [52]: > 100 µM
- TGI [52]: > 100 µM
- GI50 [53]: > 100 µM
- TGI [53]: > 100 µM
- GI50 [54]: > 100 µM
- TGI [54]: > 100 µM
- GI50 [55]: > 100 µM
- TGI [55]: > 100 µM
- GI50 [56]: > 100 µM
- TGI [56]: > 100 µM
- GI50 [57]: > 100 µM
- TGI [57]: > 100 µM
